Patent US20110212968A1, “PHENETHYLAMIDE DERIVATIVES AND THEIR HETEROCYCLIC ANALOGUES” (priority 2008, published 2011)
pIC50: −log10 of the molar value.

What was measured:
[1] = biological target: T1, human orexin-1 receptor (Homo sapiens, UniProt O43613); test: Intracellular calcium measurement (FLIPR Tetra), orexin receptor antagonistic activity, OX1; type: cell-based; settings: CHO cells expressing human orexin-1 receptor, 3 nM orexin-A, conditions B
T1 construct: expressed in transfected cells; host or cells: CHO (Chinese hamster ovary) cells, kept under G418 selection
T1 sequence (O43613 1-425): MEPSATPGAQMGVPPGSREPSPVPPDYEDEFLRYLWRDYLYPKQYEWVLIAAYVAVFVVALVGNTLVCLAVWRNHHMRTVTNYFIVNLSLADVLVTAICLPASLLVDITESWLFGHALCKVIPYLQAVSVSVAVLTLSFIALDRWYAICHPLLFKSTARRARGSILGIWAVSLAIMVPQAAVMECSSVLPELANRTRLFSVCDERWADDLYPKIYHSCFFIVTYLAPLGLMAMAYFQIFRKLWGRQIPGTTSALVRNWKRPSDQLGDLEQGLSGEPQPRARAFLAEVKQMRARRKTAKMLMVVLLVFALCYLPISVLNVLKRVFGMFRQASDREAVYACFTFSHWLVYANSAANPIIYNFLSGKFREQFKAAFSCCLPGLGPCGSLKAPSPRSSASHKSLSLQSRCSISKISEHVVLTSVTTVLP
Experimental: (§1) The orexin receptor antagonistic activity of the compounds of formula (I) is determined in accordance with one of the following experimental methods.
(§2) Chinese hamster ovary (CHO) cells expressing the human orexin-1 receptor and the human orexin-2 receptor, respectively, are grown in culture medium (Ham F-12 with L-Glutamine) containing 300 μg/ml G418, 100 U/ml penicillin, 100 μg/ml streptomycin and 10% heat inactivated fetal calf serum (FCS). The cells are seeded at 20,000 cells/well into 384-well black clear bottom sterile plates (Greiner). The seeded plates are incubated overnight at 37° C. in 5% CO2.
(§3) Human orexin-A as an agonist is prepared as 1 mM stock solution in MeOH:water (1:1), diluted in HBSS containing 0.1% bovine serum albumin (BSA), NaHCO3: 0.375 g/l and 20 mM HEPES for use in the assay at a final concentration of 3 nM. Antagonists are prepared as 10 mM stock solution in DMSO, then diluted in 384-well plates, first in DMSO, then in HBSS containing 0.1% bovine serum albumin (BSA), NaHCO3: 0.375 g/l and 20 mM HEPES.
(§4) On the day of the assay, 50 μl of staining buffer (HBSS containing 1% FCS, 20 mM HEPES, NaHCO3: 0.375 g/l, 5 mM probenecid (Sigma) and 3 μM of the fluorescent calcium indicator fluo-4 AM (1 mM stock solution in DMSO, containing 10% pluronic) is added to each well.
(§5) The 384-well cell-plates are incubated for 50 min at 37° C. in 5% CO2 followed by equilibration at RT for 30-120 min before measurement.
(§6) Within the Fluorescent Imaging Plate Reader (FLIPR Tetra, Molecular Devices), antagonists are added to the plate in a volume of 10 μl/well, incubated for 10 min and finally 10 μl/well of agonist is added. Fluorescence is measured for each well at 1 second intervals, and the height of each fluorescence peak is compared to the height of the fluorescence peak induced by 3 nM orexin-A with vehicle in place of antagonist. For each antagonist, the IC50 value (the concentration of compound needed to inhibit 50% of the agonistic response) is determined and may be normalized using the obtained IC50 value of a on-plate reference compound (normalized values in Table 1 are indicated by an asterisk *). With the FLIPR Tetra, two different conditions (conditions A and conditions B) were used, differing in adjustment of pipetting speed and cell splitting regime. The calculated IC50 values of the compounds may fluctuate depending on the daily cellular assay performance. Fluctuations of this kind are known to those skilled in the art.

[2] = biological target: T2, human orexin-2 receptor (Homo sapiens, UniProt O43614); test: Intracellular calcium measurement (FLIPR Tetra), orexin receptor antagonistic activity, OX2; type: cell-based; settings: CHO cells expressing human orexin-2 receptor, 3 nM orexin-A, conditions B
T2 construct: expressed in transfected cells; host or cells: CHO (Chinese hamster ovary) cells, kept under G418 selection
T2 sequence (O43614 1-444): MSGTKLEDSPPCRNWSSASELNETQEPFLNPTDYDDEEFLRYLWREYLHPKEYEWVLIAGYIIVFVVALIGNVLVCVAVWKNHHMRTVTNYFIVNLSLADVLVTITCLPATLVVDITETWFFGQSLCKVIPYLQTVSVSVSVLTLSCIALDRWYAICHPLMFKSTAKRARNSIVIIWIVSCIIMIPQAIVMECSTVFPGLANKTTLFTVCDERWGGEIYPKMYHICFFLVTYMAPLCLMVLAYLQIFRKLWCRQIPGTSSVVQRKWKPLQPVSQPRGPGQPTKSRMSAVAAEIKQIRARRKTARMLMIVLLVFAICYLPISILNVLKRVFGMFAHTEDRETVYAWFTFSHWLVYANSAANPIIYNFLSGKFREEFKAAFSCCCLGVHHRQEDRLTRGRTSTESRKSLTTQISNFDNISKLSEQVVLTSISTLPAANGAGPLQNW
Experimental: as §1, §2, §3, §4, §5, §6

[3] = normalized (*) using IC50 of on-plate reference compound

Structure (SMILES)	pIC50 [1, 3]	pIC50 [2, 3]	pIC50 [1]	pIC50 [2]
COc1ccc(CCN(CC2CC2)C(=O)c2nc(N)sc2-c2cccc(C)c2)cc1OC(F)F [Example 165, 2-Amino-5-m-tolyl-thiazole-4-carboxylic acid cyclopropylmethyl-[2-(3-difluoromethoxy-4-methoxy-phenyl)-ethyl]-amide]	7.46	7.74		
Cc1cccc(-c2sc(N)nc2C(=O)N(CCc2ccc3ccccc3c2)CC2CC2)c1 [Example 167, 2-Amino-5-m-tolyl-thiazole-4-carboxylic acid cyclopropylmethyl-(2-naphthalen-2-yl-ethyl)-amide]			6.77	7.35
COc1cc(CCN(CC2CC2)C(=O)c2nc(N)sc2-c2cccc(C)c2)cc(OC)c1OC(C)C [Example 173, 2-Amino-5-m-tolyl-thiazole-4-carboxylic acid cyclopropylmethyl-[2-(4-isopropoxy-3,5-dimethoxy-phenyl)-ethyl]-amide]			6.83	7.92
Cc1cccc(-c2sc(N)nc2C(=O)N(CCc2csc(N)n2)CC2CC2)c1 [Example 177, 2-Amino-5-m-tolyl-thiazole-4-carboxylic acid [2-(2-amino-thiazol-4-yl)-ethyl]-cyclopropylmethyl-amide]			< 5.00	6.02
CCc1nc(I)cn1CCN(CC1CC1)C(=O)c1nc(N)sc1-c1cccc(C)c1 [Example 178, 2-Amino-5-m-tolyl-thiazole-4-carboxylic acid cyclopropylmethyl-[2-(2-ethyl-4-iodo-imidazol-1-yl)-ethyl]-amide]			6.13	6.03
Cc1nc(C(=O)N(CCc2ccccc2Cl)CC2CC2)c(-c2ccc(C)c(C)c2)s1 [Example 180, 5-(3,4-Dimethyl-phenyl)-2-methyl-thiazole-4-carboxylic acid [2-(2-chloro-phenyl)-ethyl]-cyclopropylmethyl-amide]			5.36	6.62
Cc1nc(C(=O)N(CCc2ccc(C(F)(F)F)cc2)CC2CC2)c(-c2ccc(C)c(C)c2)s1 [Example 192, 5-(3,4-Dimethyl-phenyl)-2-methyl-thiazole-4-carboxylic acid cyclopropylmethyl-[2-(4-trifluoromethyl-phenyl)-ethyl]-amide]			< 5.00	6.14
Cc1nc(C(=O)N(CCc2ccc3c(c2)OCCO3)CC2CC2)c(-c2ccc(C)c(C)c2)s1 [Example 198, 5-(3,4-Dimethyl-phenyl)-2-methyl-thiazole-4-carboxylic acid cyclopropylmethyl-[2-(2,3-dihydro-benzo[1,4]dioxin-6-yl)-ethyl]-amide]			5.97	7.19
CCOc1ccc(CCN(CC2CC2)C(=O)c2nc(C)sc2-c2ccc(C)c(C)c2)cc1OC [Example 199, 5-(3,4-Dimethyl-phenyl)-2-methyl-thiazole-4-carboxylic acid cyclopropylmethyl-[2-(4-ethoxy-3-methoxy-phenyl)-ethyl]-amide]			6.39	8.05
COc1ccc(CCN(CC2CC2)C(=O)c2nc(C)sc2-c2ccc(C)c(C)c2)cc1C [Example 202, 5-(3,4-Dimethyl-phenyl)-2-methyl-thiazole-4-carboxylic acid cyclopropylmethyl-[2-(4-methoxy-3-methyl-phenyl)-ethyl]-amide]			6.35	7.66
COc1cc(CCN(CC2CC2)C(=O)c2nc(C)sc2-c2ccc(C)c(C)c2)ccc1O [Example 207, 5-(3,4-Dimethyl-phenyl)-2-methyl-thiazole-4-carboxylic acid cyclopropylmethyl-[2-(4-hydroxy-3-methoxy-phenyl)-ethyl]-amide]			6.27	7.92
COc1cc(CCN(CC2CC2)C(=O)c2nc(C)sc2-c2ccc(C)c(C)c2)c(OC)cc1I [Example 213, 5-(3,4-Dimethyl-phenyl)-2-methyl-thiazole-4-carboxylic acid cyclopropylmethyl-[2-(4-iodo-2,5-dimethoxy-phenyl)-ethyl]-amide]			6.80	6.82
Cc1cccc(-c2sc(N)nc2C(=O)N(CCn2ccc3ccccc32)CC2CC2)c1 [Example 221, 2-Amino-5-m-tolyl-thiazole-4-carboxylic acid cyclopropylmethyl-(2-indol-1-yl-ethyl)-amide]			6.61	6.70

Continued by rising pIC50 [1], values first:

pIC50 [1, 3]	pIC50 [2, 3]	pIC50 [1]	pIC50 [2]	Structure (SMILES)
		6.86	7.51	Cc1cccc(-c2sc(N)nc2C(=O)N(CCc2nc3ccc(Cl)cc3[nH]2)CC2CC2)c1 [Example 220, 2-Amino-5-m-tolyl-thiazole-4-carboxylic acid [2-(6-chloro-1H-benzoimidazol-2-yl)-ethyl]-cyclopropylmethyl-amide]
		7.60	7.57	CCC(Cc1ccc(OC)c(OC)c1)N(CC1CC1)C(=O)c1nc(N)sc1-c1cccc(C)c1 (stereo not drawn) [Example 169, 2-Amino-5-m-tolyl-thiazole-4-carboxylic acid cyclopropylmethyl-[1-(3,4-dimethoxy-benzyl)-propyl]-amide]
		7.68	7.82	COc1ccc(CCN(CC2CC2)C(=O)c2nc(C)sc2-c2ccc(C)c(C)c2)cc1SC [Example 201, 5-(3,4-Dimethyl-phenyl)-2-methyl-thiazole-4-carboxylic acid cyclopropylmethyl-[2-(4-methoxy-3-methylsulfanyl-phenyl)-ethyl]-amide]
		8.05	7.74	Cc1cccc(-c2sc(N)nc2C(=O)N(CCc2c[nH]c3c(C)cccc23)CC2CC2)c1 [Example 230, 2-Amino-5-m-tolyl-thiazole-4-carboxylic acid cyclopropylmethyl-[2-(7-methyl-1H-indol-3-yl)-ethyl]-amide]
		8.05	7.57	Cc1cccc(-c2sc(N)nc2C(=O)N(CCc2c[nH]c3cccc(F)c23)CC2CC2)c1 [Example 231, 2-Amino-5-m-tolyl-thiazole-4-carboxylic acid cyclopropylmethyl-[2-(4-fluoro-1H-indol-3-yl)-ethyl]-amide]
		8.10	7.59	Cc1cccc(-c2sc(N)nc2C(=O)N(CCc2c[nH]c3cc(Cl)ccc23)CC2CC2)c1 [Example 224, 2-Amino-5-m-tolyl-thiazole-4-carboxylic acid [2-(6-chloro-1H-indol-3-yl)-ethyl]-cyclopropylmethyl-amide]
		8.15	7.77	COc1ccc2c(CCN(CC3CC3)C(=O)c3nc(N)sc3-c3cccc(C)c3)c[nH]c2c1 [Example 227, 2-Amino-5-m-tolyl-thiazole-4-carboxylic acid cyclopropylmethyl-[2-(6-methoxy-1H-indol-3-yl)-ethyl]-amide]
		8.30	6.87	Cc1cccc(-c2sc(N)nc2C(=O)N(CCc2c[nH]c3ccc(Br)cc23)CC2CC2)c1 [Example 223, 2-Amino-5-m-tolyl-thiazole-4-carboxylic acid [2-(5-bromo-1H-indol-3-yl)-ethyl]-cyclopropylmethyl-amide]
